We go through 1 compound from US20220054493A1, “INHIBITORS OF NGAL PROTEIN” (INSERM (INSTITUT NATIONAL DE LA SANTÉ ET DE LA RECHERCHE …, priority 2019, published 2022).

One data set addresses T1, CYP3A4 (Homo sapiens, UniProt P08684).
T1 construct: purchased Thermo Fisher Scientific
Briefly: CYP3A4 inhibition assay (Vivid CYP3A4 assay). In kind it is in vitro ADME. On the procedure:
(§1) Two specific toxicity assays have been performed to assess hepatoxicity and cardiotoxicity. Hepatotoxicity was evaluated in isolated hepatocytes from swiss mice and determined by the MTT colorimetric assay. Cardiotoxicity was evaluated using the commercially available Predictor hERG fluorescence polarization kit (Thermo Fisher Scientific). Several ADME assays have been carried out on the compounds generated throughout the project. The following experiments were undertaken: Stability in human microsomes, binding to human plasma protein, and CYP3A4 inhibition assay (Vivid CYP3A4 assay, Thermo Fisher Scientific). Physico-chemical properties were also assessed such as aqueous solubility and chemical stability.

Data set [1] relates to CKD Mouse Model. Briefly: Renal fibrosis in the CKD mouse model (sirius red staining). The data set is classed as in vivo, mice. To be noted: two months administration; FIG. 14 A-B. The method, then:
(§2) Chronic kidney disease (CKD) was induced by subtotal nephrectomy (Nx) in eight-weeks-old FVB male mice (25-26 g). All surgeries were performed under ketamine/xylazine anaesthesia. Briefly, the left kidney was exposed, and the upper and lower poles were tied with a poly-glycolic acid suture line. The peritoneum and skin were then sutured, and the animals were returned to their individual cages. After one week of recovery, the second kidney was removed. Removal of the second kidney represents TO. Sham mice were subjected to the same surgical procedures but neither renal poles nor the right kidney were removed. Mice were monitored for any sign of distress, and those observed to be experiencing severe, unrelievable pain were euthanized. Renal failure was assessed by the measure of plasma creatinine and urea with an automatic analyser (Konelab 20i; Thermo Fisher Scientific, Vernon Hills, Ill.) at weeks 4 and 10 post-Nx.

For data set [2], the system named is aldosterone-induced profibrotic marker synthesis. Briefly: Aldosterone-induced profibrotic marker synthesis in human cardiac fibroblasts. The data set is classed as cell-based. To be noted: FIGS. 1 and 2 panel D. On the procedure: (§3) Cell Culture Human cardiac fibroblasts (primary culture) were obtained from Promocell and maintained in medium (Fibroblast Media 3). Cells were cultured according to the manufacturer's instructions and used between passages 5 and 7. Cells were stimulated with aldosterone (10^-8 M, Sigma) or recombinant hNGAL (500 ng/mL, R&D Systems) for 24 h for protein analysis. Mouse kidney fibroblasts (MKF), were isolated from Wild Type (WT) mice. Briefly, mice 7 to 8 weeks were sacrificed by cervical dislocation and kidneys were cleaned and rinsed in cold DPBS (Dulbecco's Phosphate-Buffered Saline). […]
(§4) Total protein aliquots of 20 μg were prepared from cardiac homogenates and electrophoresed on SDS polyacrylamide gels and transferred to Hybond-c Extra nitrocellulose membranes (Amersham Biosciences). […] After densitometric analyses, optical density values were expressed as arbitrary units. Results are expressed as an n-fold increase over the values of the control group in densitometric arbitrary units.
(§5) NGAL, IL6 and collagen type I concentrations were measured in cardiac tissue and cell supernatants, respectively, by ELISA according to the manufacturer's instructions (R&D Systems).
(§6) The inhibitory activity of the compounds was evaluated on the NGAL-induced IL6 secretion (NGAL 10 ng/ml) in human cardiac fibroblasts. […]

The test system of a further data set is human microsomes. The data set can be described thus: Stability in human microsomes. The data set is classed as in vitro ADME. The method, then: as §1
Data set [3] deals with T2, NGAL (Homo sapiens, UniProt P80188).
T2 construct: purchased R&D Systems
Briefly: NGAL-induced IL6 secretion in human cardiac fibroblasts (ELISA). The data set is classed as cell-based. The conditions noted are these: NGAL 10 ng/ml, FIGS. 1 and 2 panel A. The method, then:
Cell Culture Human cardiac fibroblasts (primary culture) were obtained from Promocell and maintained in medium (Fibroblast Media 3). Cells were cultured according to the manufacturer's instructions and used between passages 5 and 7. Cells were stimulated with aldosterone (10^-8 M, Sigma) or recombinant hNGAL (500 ng/mL, R&D Systems) for 24 h for protein analysis. Mouse kidney fibroblasts (MKF), were isolated from Wild Type (WT) mice. Briefly, mice 7 to 8 weeks were sacrificed by cervical dislocation and kidneys were cleaned and rinsed in cold DPBS (Dulbecco's Phosphate-Buffered Saline). The renal cortex was minced and incubated in Dulbecco's modified eagle medium/Nutrient mixture F-12 (DMEM/F12, Sigma) containing 1 mg/mL collagenase A (Roche) during 25 minutes at 37° C. The digestion was inactivated by adding culture medium (DMEM/F12+10% FBS) then the cell suspension was passed through a 100-μm cell strainer. After centrifugation, the pellet (containing MKF) was diluted with culture medium then plated in 75 cm^2 culture flask. After 24 hours MKF were washed with DPBS before replacement of fresh culture medium. Thereafter, culture medium was changed every 48 hours. Once 70-80% confluent, MKF were trypsinized and plated in 12 or 6-well plates. For experimental use, MKF were starved with culture medium containing only 3% FBS. MKF were treated with mNGAL (500 ng/mL, R&D Systems) for 24 h for gene expression analysis.
as §5
The inhibitory activity of the compounds was evaluated on the NGAL-induced IL6 secretion (NGAL 10 ng/ml) in human cardiac fibroblasts.
Inhibitory activities of 23 second generation compounds derived from GPZ614741 and GPZ058225 were evaluated on the NGAL-induced IL6 secretion (NGAL 10 ng/ml) in human cardiac fibroblasts.

Another data set is described as follows: Chemical stability. The data set is classed as physicochemical. The method, then:
as §1

For data set [4], the system named is isolated hepatocytes from swiss mice. The data set can be described thus: Hepatotoxicity, MTT colorimetric assay. In kind it is cell-based. The method, then:
as §1
For orientation: Tetrazolium dyes change colour on reduction, which living cells bring about.

Data set [5] has as its target T2, NGAL. The data set can be described thus: NGAL-induced profibrotic marker synthesis in human cardiac fibroblasts (western blot). The data set is classed as cell-based. The conditions noted are these: FIGS. 1 and 2 panel C. On the procedure: as §3, with “Saline). The renal cortex was minced and incubated in Dulbecco's modified eagle medium/Nutrient mixture F-12 (DMEM/F12, Sigma) containing 1 mg/mL collagenase A (Roche) during 25 minutes at 37° C.” for “Saline).”
as §4, §6
In general terms: In western blotting, separated proteins are transferred to a membrane and probed.

For data set [6], the system named is CKD Mouse Model. Briefly: Blood pressure in the CKD mouse model (subtotal nephrectomy). The data set is classed as in vivo, mice. The conditions noted are these: two months administration; FIG. 13. On the procedure:
Systolic BP was measured by tail-cuff plethysmography in trained conscious mice at weeks 8-10 using a BP2000 Visitech model. BP was measured every day in the same room at the same hour for 5 consecutive days. The BP measurements (expressed as mmHg) presented are the averages of the last 3 days
as §2

T2 sequence (P80188 21-198): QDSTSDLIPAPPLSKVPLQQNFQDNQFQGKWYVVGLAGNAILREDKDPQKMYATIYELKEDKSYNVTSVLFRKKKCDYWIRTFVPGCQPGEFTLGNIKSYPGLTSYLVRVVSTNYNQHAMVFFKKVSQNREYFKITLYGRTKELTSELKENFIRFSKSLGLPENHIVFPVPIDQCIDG
T1 sequence (P08684 whole entry): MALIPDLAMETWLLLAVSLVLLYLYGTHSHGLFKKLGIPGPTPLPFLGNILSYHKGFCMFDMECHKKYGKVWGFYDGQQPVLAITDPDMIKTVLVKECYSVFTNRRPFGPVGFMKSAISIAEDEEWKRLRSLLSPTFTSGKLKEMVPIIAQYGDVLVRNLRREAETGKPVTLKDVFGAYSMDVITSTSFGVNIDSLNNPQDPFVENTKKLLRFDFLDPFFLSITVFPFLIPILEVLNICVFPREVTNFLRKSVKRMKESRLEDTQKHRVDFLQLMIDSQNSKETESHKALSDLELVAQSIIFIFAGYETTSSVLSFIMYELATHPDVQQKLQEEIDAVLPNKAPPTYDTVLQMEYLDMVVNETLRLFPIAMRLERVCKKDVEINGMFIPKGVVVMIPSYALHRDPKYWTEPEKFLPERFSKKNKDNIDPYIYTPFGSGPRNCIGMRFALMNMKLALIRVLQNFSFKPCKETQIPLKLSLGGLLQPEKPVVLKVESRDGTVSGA

Consider `CC(=O)c1cccc(S(=O)(=O)NCc2ccccc2-n2cccn2)c1` [GPZ614741], for which the “processing by CYP3A4” value at CYP3A4 is on record as “partially processed”. Besides, at CYP3A4 (human, recombinant CYP3A4 (Vivid CYP3A4 assay kit), 100 = no inhibition, read-out: CyP 3A4 Inhibition % (100 = no inhibition)), the Activity came out at 72.2 ± 1.94%. Moreover, in the data set with CKD Mouse Model [1], the “interstitial fibrosis associated to CKD (sirius red staining)” value is on record as “strong antifibrotic effect”. Moreover, the “aldosterone-induced profibrotic marker (Col1, CT-1, or IL6) synthesis” value in [2] was “inhibited”. The “microsomes degradation, left after 2 h” value in the data set on human microsomes (after 2 h) is recorded as 2.2%. Also, the “Micro Stability” value with human microsomes (human microsomes) was found to be 2.19%. Moreover, the “NGAL-induced IL6 secretion” value at NGAL [3] is listed as “inhibited”. Moreover, in the data set “Chemical stability”, the “Chemical Stability” value is 103% and the “stability to acidic pH / digestive content” value is reported as “fully stable”. In data set [4] (MTT up to 0.1 mM), the “hepatotoxicity (toxicity for hepatocytes)” value is “no toxicity”. Moreover, the Hepatotoxicity result in data set [4] (cell wrapped over two lines: No tox up / 100 uM) is given as “No tox up”. Also, the “NGAL-induced profibrotic marker (col1, col III, fibronectin, Gal3, OPN) synthesis” value on NGAL [5] is given as “inhibited”. Besides, the “increase of blood pressure induced by CKD” value in the data set on CKD Mouse Model [6] is “prevented the increase”.
